Patent publication US20220304946A1 (priority 2021, published 2022)
“Also recorded” adds a separate entry of the source. Where two headings read alike, the source gives them in different places. Where a SMILES comes first, the peptide text is derived from it. Bridges are numbered along the chain shown (N, C = ends). [ ]: non-standard residue; d: D form. The star is where a group is joined. Ileψ(thiazoline)Cys = CC[C@H](C)[C@H](N)C1=N[C@H](C(=O)*)CS1; dOrn = NCCC[C@@H](N)C(=O)O

Legend:
[1] = biological target: prolyl endopeptidase (PEP) (UniProt P27028); assay: PEP inhibitory activity assay (modified Yoshimoto et al. method, Z-Gly-Pro-pNA substrate); type: biochemical
Procedure: PEP inhibitory activity was evaluated with minor modification of the Yoshimoto et al. method. Briefly, 150 μL of sodium phosphate buffer (50 mM, pH 7.0), and 10 μL of the test compound (0.5 mM in DMSO) were added into a 96-well plate, followed by adding 20 μL solution containing 0.02 units of PEP enzyme. In the Blank reaction, 20 μL of DMSO was added instead of the test compound, while bacitracin (0.5 mM) was used as the positive control. The incubation of the reaction mixture was carried out for 15 min at 30° C. after which a pre-read was taken at 410 nm. Next, 0.4 mM solution of Z-Gly-Pro-pNA was formed in aqueous 1,4-dioxane (40%), followed by taking the optical density (O.D.) of the reaction mixture at a wavelength of 410 nm for 40 min using a 96-well plate reader (SpectraMax-384, Molecular Devices, CA, USA).
Each reaction was repeated thrice and the differences in the results of each experiment were collectively expressed as the standard error of the mean (SEM).
% Inhibition=100−(O.D. test compound/O.D. Control)×100

[2] = biological target: prolyl endopeptidase (PEP) (UniProt P27028); assay: Kinetic assay of PEP inhibition (Lineweaver-Burk and Dixon plots); type: biochemical
Procedure: That in which way it inhibits the PEP catalytic activity i.e. competitive inhibition, non-competitive inhibition, mixed or uncompetitive inhibition. […] The reaction was started post adding four various concentrations of Z-Gly-Pro-pNA (0.2 mM to 0.5 mM). The PEP enzymatic catalysis was assessed at 410 nm via a 96-well plate reader.
Next, using the obtained O.D. results, the Lineweaver-Burk and Dixon plot was generated.
Grafit version-7 (Erithacus Software Limited, UK) was employed for the Kinetic studies.

prolyl endopeptidase (PEP), sequence (P27028 whole entry): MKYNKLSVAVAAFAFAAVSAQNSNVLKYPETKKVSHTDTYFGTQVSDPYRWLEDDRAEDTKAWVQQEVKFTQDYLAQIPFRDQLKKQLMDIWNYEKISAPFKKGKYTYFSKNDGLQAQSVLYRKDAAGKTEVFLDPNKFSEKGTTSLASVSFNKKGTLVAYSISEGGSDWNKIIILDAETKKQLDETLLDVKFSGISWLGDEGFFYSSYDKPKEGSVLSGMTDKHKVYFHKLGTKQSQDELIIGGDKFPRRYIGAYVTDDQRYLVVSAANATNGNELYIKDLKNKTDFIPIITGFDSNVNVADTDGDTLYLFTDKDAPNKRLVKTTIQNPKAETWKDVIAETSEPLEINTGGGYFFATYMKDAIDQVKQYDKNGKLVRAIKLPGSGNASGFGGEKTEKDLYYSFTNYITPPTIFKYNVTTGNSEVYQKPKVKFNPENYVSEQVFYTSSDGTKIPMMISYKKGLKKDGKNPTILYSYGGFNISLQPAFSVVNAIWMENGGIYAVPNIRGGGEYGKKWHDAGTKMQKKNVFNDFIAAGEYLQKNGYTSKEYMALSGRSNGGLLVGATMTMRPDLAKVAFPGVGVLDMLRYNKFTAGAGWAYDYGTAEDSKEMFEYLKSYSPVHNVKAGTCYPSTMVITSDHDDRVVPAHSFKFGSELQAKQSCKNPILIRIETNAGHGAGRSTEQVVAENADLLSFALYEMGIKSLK

Row | SMILES | IC50 ([1]; mean ± SEM, repeated thrice; 30° C., pH 7.0; read-out: PEP inhibitory activity IC50) [µM] | IC50 ([1]; read-out: PEP inhibitory activity IC50; mean ± SEM, repeated thrice; 30° C., pH 7.0) [µM] | type of PEP inhibition ([2]; Lineweaver-Burk / Dixon plot) | Ki ([2]; read-out: Ki value, Lineweaver-Burk plot, reconfirmed by Dixon plot) [µM]
1 | CC[C@H](C)[C@H](N)C1=N[C@H](C(=O)N[C@@H](CC(C)C)C(=O)N[C@H](CCC(=O)O)C(=O)N[C@H](C(=O)N[C@H]2CCCCNC(=O)[C@H](CC(N)=O)NC(=O)[C@@H](CC(=O)O)NC(=O)[C@H](Cc3cnc[nH]3)NC(=O)[C@@H](Cc3ccccc3)NC(=O)[C@H]([C@@H](C)CC)NC(=O)[C@@H](CCCN)NC2=O)[C@@H](C)CC)CS1 [bacitracin, reference compound] ({Ileψ(thiazoline)Cys}-L[dE]IK[dOrn]I[dF]H[dD]N; lactam 4-C) | 114 ± 1.2 | – | – | –
2 | C/C=C/c1ccc(OC)cc1 [trans-anethole, (E)-1-Methoxy-4-(1-propenyl) benzene] | – | 5.7 ± 1.2 | competitively inhibited; also recorded: competitive | 5.656 ± 0.03
